According to publication PMC6582486, “Stapled EGFR peptide reduces inflammatory breast cancer and inhibits additional HER-driven models of cancer” (Journal of Translational Medicine, 2019):
Where a SMILES comes first, the peptide text is derived from it. Bridges are numbered along the chain shown (N, C = ends). [ ]: non-standard residue; d: D form. R8 = C=CCCCCCC[C@@](C)(N)C(=O)O; S5 = C=CCCC[C@](C)(N)C(=O)O

Tests used:
[1] = test system: EGFR T790M mutated H1975 lung adenocarcinoma cells; assay: Cell viability assay (MTT), H1975; type: cell-based; settings: H1975 (HER1 T790M), 10 µM, 72 h
Description: 1000–3000 cells were plated in 96-well plates (Falcon; Corning, NY) and allowed to adhere for 24–48 h prior to therapeutic introduction. Compounds were added and incubated on cells for 3 days in serum-containing media, followed by 2 h treatment with MTT (Sigma M5655) with the resulting formazan solubilized in DMSO. Absorbance was read at 540 nm by plate reader (uQuant, Bio-Tek Instruments). P-values were calculated from a one-way ANOVA.
Fig. 3 SAH5-EJ1 inhibits growth and prolongs survival in PDX models of lung cancer. a, b Cell viability assays performed in A549 or EGFR T790M mutated H1975 lung adenocarcinoma cells over 3 days comparing treatment with Sapitinib (blue lines) to SAH5-EJ1 (red lines). Solid lines represent 24 h; dashed lines represent 72 h. Data shown represent mean ± percent difference of assays performed in quadruplicate. c Reduction in tumor burden in Erlotinib-resistant lung cancer PDX mouse model TM00784 with various doses of intravenous SAH5-EJ1. Control represents water as a vehicle control. *p < 0.05 (Control vs 1 µg/g); **p < 0.01 (Control vs 1 µg/g and vs 10 µg/g). d Kaplan–Meier curve of lung PDX mouse model treated with control (blue line) or either 1 or 10 µg/g SAH5-EJ1 (green line and red line, respectively). Data shown represent mean. N = 6 for all groups

[2] = 28-day toxicity study: survival, NOAEL; type: in vivo, CD-1 mice; settings: for Survival (%): after 28 days, N = 10
Description: Toxicology was performed by IITRI. The study was conducted in compliance with the US Food and Drug Administration (FDA) good laboratory practice (GLP) Regulations (Code of Federal Regulations Title 21 Part 58) to evaluate the toxicokinetics, local tolerability, immunogenicity, and potential toxicity of SAH5-EJ1 following three times per week intravenous (IV) dosing for 28 days in mice. Male and female CD-1 IGS [Crl:CD1(ICR)] mice (135 per sex) were received from Wilmington, MA-based Charles River Laboratories, Inc.’s Kingston facility (Stone Ridge, NY).
Finally, we confirmed the maximum tolerated dose of SAH5-EJ1, evaluating 5, 10, and 15 mg/kg body weight dosages (Table S3, Additional file 1). […] At 15 mg/kg, one male animal died from unknown causes and was classified as an accidental death. Therefore, 10 mg/kg was considered the no-observed-adverse-effect level (NOAEL). […] Increased spleen weights observed in 10 mg/kg and 15 mg/kg-treated mice most likely resulted from extramedullary hematopoiesis, also known as “blueberry muffin baby syndrome”, an asymptomatic event in which red blood cells accumulate outside of the bone marrow (Table S5, Additional file 1). Increased spleen size is likely due to an increase red blood cell production associated with IV injection-affiliated cell death. Clinical chemistry panels indicate that despite the high concentration of SAH5-EJ1 in the liver, liver function is not inhibited, with normal ranges of ALT/AST and total bilirubin (Table 2).
Male (M) and Female (F) mice. Not including mice for recovery study (additional 10 mice/sex), toxicokinetics (56 mice/sex), or immunogenicity (18 mice/sex). Accidental male deaths on day 27/28 at 5mg/kg dosage and day 22/28 at 15 mg/kg dosage. Female death on day 3/28 at 15mg/kg dosage with hypoactivity noted on day 1.

[3] = test system: MCF10A breast cells; assay: Cell viability assay (MTT), MCF10A; type: cell-based, human
Excerpt: (§1) Fig. 1 Hydrocarbon stapling leads to increased EJ1 activity in comparison to HER-directed monoclonal therapies. a EJ1 sequence with PTD4 domain (underlined) corresponding to EGFR juxtamembrane domain sequence 643–663. Stabilized alpha helix (SAH) variations 1–5 beneath, with asterisks (*) indicating sites of staple. Control peptide (CP) with altered residues indicated by double underline. Stapled control (5) asterisks (*) indicate sites of staple. b Cartoon representation of EJ1 structure, with staple variation 5 highlighted. Positively charged residues indicated in blue, negatively charged residues in red. c Cartoon representation of CP structure, with staple variation highlighted. d Cell viability assay performed in MDA-MB-468 cells after 24 h comparing unstapled EJ1 versus staple variations SAH1, SAH4, and SAH5, with increasing concentrations. e Visualization of MDA-MB-468 cells untreated, treated with 10 µM EJ1, and 10 µM SAH5-EJ1 after 60 min. Scale bars represent 50 µm. f–h Cell viability assay performed in MDA-MB-468, MCF10A, or CHO cells over 3 days comparing treatment with Sapitinib (blue lines), SAH5-EJ1 (red lines), and SAH5-CP (grey lines). […] Absorbance was read at 540 nm by plate reader (uQuant, Bio-Tek Instruments). P-values were calculated from a one-way ANOVA.

[4] = test system: CHO cells; assay: Cell viability assay (MTT), CHO; type: cell-based, Chinese Hamster; settings: 5 µM (Fig. 1h)
Excerpt: as §1

For `CC[C@H](C)[C@H](NC(=O)[C@H](Cc1c[nH]cn1)NC(=O)[C@H](CCCNC(=N)N)NC(=O)[C@H](CCCNC(=N)N)NC(=O)[C@H](CCCNC(=N)N)NC(=O)[C@H](CCSC)NC(=O)[C@H](Cc1ccccc1)NC(=O)[C@H](C)NC(=O)[C@H](CCCNC(=N)N)NC(=O)[C@H](C)NC(=O)[C@H](CCC(N)=O)NC(=O)[C@H](CCCNC(=N)N)NC(=O)[C@H](C)NC(=O)[C@H](C)NC(=O)[C@H](C)NC(=O)[C@H](CCCNC(=N)N)NC(=O)[C@H](C)NC(=O)[C@@H](N)Cc1ccc(O)cc1)C(=O)N[C@H](C(=O)N[C@@H](CCCNC(=N)N)C(=O)N[C@@H](CCCCN)C(=O)N[C@@H](CCCNC(=N)N)C(=O)N[C@]1(C)CCCCCCC=CCCC[C@@](C)(C(=O)N[C@@H](CCCNC(=N)N)C(=O)N[C@@H](CCC(=O)O)C(N)=O)NC(=O)[C@H](CCC(N)=O)NC(=O)[C@H](CC(C)C)NC(=O)[C@H](CC(C)C)NC(=O)[C@H](CCCNC(=N)N)NC(=O)[C@H](CCCNC(=N)N)NC(=O)[C@H](CC(C)C)NC1=O)C(C)C` [SAH5-EJ1] (H-YARAAARQARAFMRRRHIVRKR[R8]LRRLLQ[S5]RE-NH2; staple 23-30), the cell death [1] was 100%, the “systemic or target organ toxicity” value ([2]; 5, 10 and 15 mg/kg IV, 28-day repeat toxicity study) was “no evidence of any systemic or target organ toxicity” and the NOAEL at 672 h ([2]; both sexes, CD-1, mouse, in vivo, IV three times per week, 28 days, mice, read-out: no-observed-adverse-effect level (NOAEL)) was 10 mg/kg. The “Survival (%)” value ([2]; female, 5 mg/kg) was 100%, the “Survival (%)” value ([2]; female, 10 mg/kg) was 100% and the “Survival (%)” value ([2]; female, 15 mg/kg) was 90%. For the same molecule, the “Survival (%)” value ([2]; male, 5 mg/kg) was 90%, the “Survival (%)” value ([2]; male, 10 mg/kg) was 100% and the “Survival (%)” value ([2]; male, 15 mg/kg) was 90%. The “concentration at which complete cell death was observed” value [3] was 10 µM and the cell viability [4] was 67%.
